Measured values taken from US7229991B2, “Substituted 5-aminomethyl-1H-pyrrole-2-carboxamides” (priority 2002, dated 2007).
pKi: −log10 of the molar value. Where two headings read alike, the source gives them in different places.

Legend:
5-HT uptake = target: T1, 5-HT uptake (Rattus norvegicus, UniProt P31652); assay: 5-HT uptake inhibition in rat brain synaptosomes (medulla and pons); format: biochemical; parameters: concentration or dose not given beside the values; conditions: conc. 10 (unit not given), [3H]-5-HT
T1 construct: Synaptosomes from rat brain regions (the “P2” fraction was used) were freshly isolated; from tissue; host or cells: rat brain synaptosomes (P2 fraction), medulla and pons
T1 sequence (P31652 whole entry): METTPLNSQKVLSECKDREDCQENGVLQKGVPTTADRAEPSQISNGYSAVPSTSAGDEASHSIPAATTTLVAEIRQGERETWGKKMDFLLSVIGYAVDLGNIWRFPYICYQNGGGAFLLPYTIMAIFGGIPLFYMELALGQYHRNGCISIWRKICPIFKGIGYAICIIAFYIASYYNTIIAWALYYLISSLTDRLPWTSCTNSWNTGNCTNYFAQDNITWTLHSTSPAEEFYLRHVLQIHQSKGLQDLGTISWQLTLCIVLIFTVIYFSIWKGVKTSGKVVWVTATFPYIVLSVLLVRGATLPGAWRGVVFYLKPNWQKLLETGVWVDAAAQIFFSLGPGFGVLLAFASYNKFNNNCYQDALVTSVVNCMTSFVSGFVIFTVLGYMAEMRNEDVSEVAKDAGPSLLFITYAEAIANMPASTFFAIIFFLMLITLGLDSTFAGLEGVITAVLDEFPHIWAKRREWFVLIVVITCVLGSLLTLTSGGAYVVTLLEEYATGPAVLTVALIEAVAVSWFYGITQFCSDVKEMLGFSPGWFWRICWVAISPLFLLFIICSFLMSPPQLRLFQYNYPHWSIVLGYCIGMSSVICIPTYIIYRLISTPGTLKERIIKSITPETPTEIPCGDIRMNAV
Text: (§1) c) Method for Determining Noradrenalin and the 5-HT Uptake Inhibition:
(§2) Synaptosomes from rat brain regions (the “P2” fraction was used) were freshly isolated for in vitro studies, as described in the publication “The isolation of nerve endings from brain” by E. G. Gray and V. P. Whittaker, J. Anatomy 76, pages 79-88, 1962. The corresponding literature description is hereby introduced as a reference and is deemed to be part of the disclosure.
(§3) The tissue (hypothalamus for the determination of noradrenalin uptake inhibition and medulla and pons for the determination of 5-HT uptake inhibition) was homogenised in ice-cooled 0.32 M sucrose (100 mg of tissue/1 mL) in a glass homogeniser with teflon pestle using five complete up and down strokes at 840 revolutions/minute.
(§4) The homogenate was centrifuged at 4° C. for 10 minutes at 1000 g. After subsequent centrifugation at 17000 g for 55 minutes, the synaptosomes (P2 fraction) were obtained, which were resuspended in 0.32 M glucose (0.5 mL/100 mg of original weight).
(§5) The particular uptake was measured in a 96-well microtitre plate. The volume was 250 μl and the incubation proceeded at room temperature (approx. 20-25° C.) under an O2 atmosphere.
(§6) The incubation time was 7.5 minutes for [^3H]-NA and 5 minutes for [^3H]-5-HT. The 96 samples were then filtered through a Unifilter GF/B® microtitre plate (Packard) and washed with […] of incubated buffer using a “Brabdel MPXRI-96T Cell-Harvester”. The Unifilter GF/B plate was dried for 1 hour at 55° C. The plate was then sealed with a Back seal® (Packard) and 35 μl of scintillation fluid were added per well (Ultima gold®, Packard). After sealing with a top seal® (Packard) and establishment of equilibrium (around 5 hours), radioactivity was determined in a “Trilux 1450 Microbeta” (Wallac).
(§7) The quantity of protein used in the above determination corresponded to the values known from the literature, as for example described in “Protein measurement with the folin phenol reagent”, Lowry et al., J. Biol. Chem., 193, 265-275, 1951. A detailed description of the method may also be found in the literature, for example in M.Ch. Frink, H.-H. Hennies, W. Engelberger, M. Haurand and B. Wilffert (1996) Arzneim.-Forsch./Drug Res. 46 (III), 11, 1029-1036. The corresponding literature descriptions are hereby introduced as a reference and are deemed to be part of the disclosure.

human μ opiate receptor = human μ opiate receptor (Homo sapiens, UniProt P35372); assay: human μ opiate receptor binding assay with [3H]-naloxone, CHO-K1 membrane preparation; conditions: for inhibition at 1 µM: read-out: Human ORm Nal inhibition [%]
Chain of human μ opiate receptor (P35372 whole entry): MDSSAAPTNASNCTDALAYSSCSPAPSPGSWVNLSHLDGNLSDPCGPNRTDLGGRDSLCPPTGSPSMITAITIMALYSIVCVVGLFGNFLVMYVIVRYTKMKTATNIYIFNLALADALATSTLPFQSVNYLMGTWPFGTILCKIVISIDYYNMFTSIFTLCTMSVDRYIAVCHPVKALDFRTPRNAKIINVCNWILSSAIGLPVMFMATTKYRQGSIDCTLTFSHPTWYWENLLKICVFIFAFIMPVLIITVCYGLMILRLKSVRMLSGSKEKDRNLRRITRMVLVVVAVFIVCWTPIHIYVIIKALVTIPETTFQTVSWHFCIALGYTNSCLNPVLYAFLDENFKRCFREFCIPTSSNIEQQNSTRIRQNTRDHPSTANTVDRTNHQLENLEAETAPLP
Method: b) Method for Determining Affinity for the Human μ Opiate Receptor
Receptor affinity for the human μ opiate receptor was determined in a homogeneous batch in microtitre plates. To this end, dilution series of the particular substituted 5-aminomethyl-1H-pyrrole-2-carboxylic acid amide of the general formula I to be tested were incubated at room temperature for 90 minutes in a total volume of 250 μl with a receptor membrane preparation (15-40 μg of protein per 250 μl of incubation batch) of CHO—K1 cells, which express the human μ opiate receptor (RB—HOM receptor membrane preparation from NEN, Zaventem, Belgium) in the presence of 1 nmol/l of the radioactive ligand [^3H]-naloxone (NET719, from NEN, Zaventem, Belgium) and of 1 mg of WGA-SPA beads (wheat germ agglutinin SPA beads from Amersham/Pharmacia, Freiburg, Germany). The incubation buffer used was 50 mmol/l tris-HCl supplemented with 0.05 wt. % of sodium azide and with 0.06 wt. % of bovine serum albumin. 25 μmol/l of naloxone were additionally added to determine nonspecific binding. Once the ninety minute incubation time had elapsed, the microtitre plates were centrifuged off for 20 minutes at 1000 g and the radioactivity measured in a β-Counter (Microbeta-Trilux, from PerkinElmer Wallac, Freiburg, Germany). The percentage displacement of the radioactive ligand from its binding to the human μ opiate receptor was determined at a concentration of the compounds to be tested of 1 μmol/l and stated as percentage inhibition of specific binding. On the basis of the percentage displacement by different concentrations of the compounds to be tested of the general formula I, IC50 inhibition concentrations which bring about 50% displacement of the radioactive ligand were calculated. Ki values for the test substances were obtained by conversion using the Cheng-Prusoff equation.

NA transporter = target: T2, NA transporter (Rattus norvegicus, UniProt Q63380); assay: noradrenalin uptake inhibition in rat brain synaptosomes (hypothalamus); format: biochemical; parameters: concentration or dose not given beside the values; conditions: conc. 10 (unit not given), [3H]-NA
T2 construct: Synaptosomes from rat brain regions (the “P2” fraction was used) were freshly isolated; from tissue; host or cells: rat brain synaptosomes (P2 fraction), hypothalamus
T2 sequence (Q63380 1-617): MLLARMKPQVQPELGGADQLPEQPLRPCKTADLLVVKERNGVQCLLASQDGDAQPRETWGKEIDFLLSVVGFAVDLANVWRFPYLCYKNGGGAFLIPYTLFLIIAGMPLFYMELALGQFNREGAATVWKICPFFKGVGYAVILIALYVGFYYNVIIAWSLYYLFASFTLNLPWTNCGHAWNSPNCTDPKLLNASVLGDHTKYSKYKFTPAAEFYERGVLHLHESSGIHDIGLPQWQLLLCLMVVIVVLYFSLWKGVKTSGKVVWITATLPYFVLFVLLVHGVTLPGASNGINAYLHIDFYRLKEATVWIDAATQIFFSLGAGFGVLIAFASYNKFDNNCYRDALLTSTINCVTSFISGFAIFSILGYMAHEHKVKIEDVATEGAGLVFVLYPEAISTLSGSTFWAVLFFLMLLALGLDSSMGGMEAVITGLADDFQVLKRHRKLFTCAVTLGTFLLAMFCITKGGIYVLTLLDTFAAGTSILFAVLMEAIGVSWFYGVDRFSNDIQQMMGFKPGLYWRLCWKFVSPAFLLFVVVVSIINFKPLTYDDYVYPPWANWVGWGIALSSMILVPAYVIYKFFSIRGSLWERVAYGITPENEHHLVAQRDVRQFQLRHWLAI
Text: as §1, §2, §3, §4, §5, §6
The following characteristics were determined for the NA transporter: NAuptake: Km=0.32±0.11 μM
as §7

[1] = [3H]-naloxone, from IC50 by the Cheng-Prusoff equation, read-out: Human ORm Nal Ki

Compound | 5-HT uptake inhibition [%] conc. 10 (5-HT uptake) [%] | inhibition at 1 µM (human μ opiate receptor) [%] | Noradrenalin uptake inhibition [%] conc. 10 (NA transporter) [%] | pKi (human μ opiate receptor; [1]) | pKi (human μ opiate receptor)
CCCCNC(=O)c1ccc(C(c2ccc(Br)cc2)N(C)C)n1C.Cl (centres unmarked) [Example 5, 5-[Dimethylamino-(4-bromo-phenyl)-methyl]-1-methyl-1H-pyrrole-2-carboxylic acid butylamide hydrochloride] | 57 | 62 | 86 |  | 
CCCCNC(=O)c1ccc(C(c2ccc(F)cc2)N(C)C)n1C.Cl (centres unmarked) [Example 2, 5-[Dimethylamino-(4-fluoro-phenyl)-methyl]-1-methyl-1H-pyrrole-2-carboxylic acid butylamide hydrochloride] | 52 | 49 | 72 | 6.44 | 
CN(C)C(c1ccc(Br)cc1)c1ccc(C(=O)N2CCCC2)n1C.Cl (centres unmarked) [Example 6, {5-[(4-Bromo-phenyl)-dimethylamino-methyl]-1-methyl-1H-pyrrol-2-yl)-pyrrolidin-1-yl-methanone hydrochloride] | 51 |  | 83 |  | 
CN(C)C(c1ccccc1)c1ccc(C(=O)N2CCCC2)n1C.Cl (centres unmarked) [Example 11, [5-(Dimethylamino-phenyl-methyl)-1-methyl-1H-pyrrol-2-yl]-pyrrolidin-1-yl-methanone hydrochloride] | 54 | 33 |  |  | 
CN(C)C(c1ccc(Br)cc1)c1ccc(C(=O)NCCc2ccccc2)n1C.Cl (centres unmarked) [Example 7, 5-[(4-Bromo-phenyl)-dimethylamino-methyl]-1-methyl-1H-pyrrole-2-carboxylic acid phenethylamide hydrochloride] | 93 | 65 | 95 |  | 6.00
CN(C)C(c1ccc(Br)cc1)c1ccc(C(=O)NC2CCCCC2)n1C.Cl (centres unmarked) [Example 4, 5-[Dimethylamino-(4-bromo-phenyl)-methyl]-1-methyl-1H-pyrrole-2-carboxylic acid cyclohexylamide hydrochloride] | 72 | 80 | 93 | 6.10 | 
CN(C)C(c1ccc(F)cc1)c1ccc(C(=O)NC2CCCCC2)n1C.Cl (centres unmarked) [Example 1, 5-[Dimethylamino-(4-fluoro-phenyl)-methyl]-1-methyl-1H-pyrrole-2-carboxylic acid cyclohexylamide hydrochloride] | 57 | 62 | 80 |  | 6.80
CN(C)C(c1ccccc1)c1ccc(C(=O)NC2CCCCC2)n1C.Cl (centres unmarked) [Example 9, 5-(Dimethylamino-phenyl-methyl)-1-methyl-1H-pyrrole-2-carboxylic acid cyclohexylamide hydrochloride] |  | 76 | 70 |  | 
CCCCNC(=O)c1ccc(C(c2ccccc2)N(C)C)n1C.Cl (centres unmarked) [Example 10, 5-(Dimethylamino-phenyl-methyl)-1-methyl-1H-pyrrole-2-carboxylic acid butylamide hydrochloride] |  |  | 52 |  | 
CN(C)C(c1ccc(F)cc1)c1ccc(C(=O)N2CCCC2)n1C.Cl (centres unmarked) [Example 3, {5-[Dimethylamino-(4-fluoro-phenyl)-methyl]-1-methyl-1H-pyrrol-2-yl}-pyrrolidin-1-yl-methanone hydrochloride] |  |  | 38 |  | 
CN(C)C(c1ccc(Br)cc1)c1ccc(C(=O)N2CCOCC2)n1C.Cl (centres unmarked) [Example 8, {5-[(4-Bromo-phenyl)-dimethylamino-methyl]-1-methyl-1H-pyrrol-2-yl}-morpholin-4-yl-methanone hydrochloride] | 79 |  | 43 |  | 
